Tests used:
Ptpn11_C SH2 domain = assay: SPOT peptide array; format: binding; conditions: GST-SH2 0.25 μM
Description: (§1) The use of addressable peptide arrays is a reproducible and semi-quantitative approach that has been extensively validated for studying protein interactions with peptide ligands. To investigate connections between SH2 domain proteins and their putative phosphorylated docking sites on cell surface receptors, we developed addressable arrays consisting of 192 phosphotyrosine peptides. This peptide set was assembled using 71 phosphotyrosine peptide motifs corresponding to all of the cytoplasmic tyrosine residues within the FGF receptors (FGFR1-4), insulin receptor (InsR) and IGF-1 receptor (IGF-1R) (Figure 1A). Activation of these receptors results in the phosphorylation of associated scaffold proteins, and so 75 phosphotyrosine peptides corresponding to a comprehensive list of tyrosine residues within insulin receptor substrates (IRS-1 and IRS-2) and fibroblast receptor substrates (FRS-2 and FRS-3) were included. In addition, 33 phosphotyrosine peptides were incorporated from the downstream signaling proteins PLC-γ1, p130Cas (BCAR1) and p62DOK1. […] These control peptides provide a reference and establish the empirical cut-off for designated binding interactions (Table 1). No discrimination was made against peptides on the basis of reported phosphorylation state in order to examine a diverse and unbiased set of motifs. The resulting set of 192 phosphotyrosine peptides and their corresponding position in the proteins of origin is noted in Additional file 1: Table S1. Addressable arrays were synthesized as membrane-bound 11-mer peptides using the SPOT synthesis technique. While the majority of SH2 domains recognize residues C-terminal to the phosphotyrosine in their cognate peptide ligands, additional contacts between SH2 domains and residues N-terminal to the phosphotyrosine are observed for the SH2 domain of Sh2d1a (SAP) and cannot be ruled out in other cases. Peptides were synthesized with six flanking residues C-terminal to the phosphotyrosine and four residues N-terminal to the phosphotyrosine.
(§2) SH2 domains were arrayed as GST fusion proteins and detected using anti-GST primary antibodies and near-infrared labeled secondary antibodies. In an effort to present a dataset with minimal false positives, we chose an empirical cutoff based on the array average across all peptide spots to classify interactions (Figure 1A). In cases where the intensity of the signal for an individual SH2-domain binding event exceeded the mean intensity of all the peptides on the membrane by three-fold were scored as “array positives” [22]. Non-binding was judged in cases where the intensity of a spot was less than the mean intensity of all spots on the membrane and these were scored as “array negatives”. Peptides with signal intensities between 1X and 3X mean were scored as “indeterminate” and ascribed as neither array positive binding interactions nor array-negative non-binders. […] This signature may be indicative of promiscuity differences between phosphopeptides or there may be a subset of peptides which interact in a nonspecific fashion with either the GST fusion tag or one of the antibodies used for detection, resulting in false positives. Consistent with our goal of reducing the errors associated with identifying false-positives, we probed three separate arrays with three separate preps of the GST fusion tag alone. Potentially non-specificly interacting peptides (so-called ‘sticky’ peptides) were identified as any that bound to GST with above mean intensity in two out of three separate trials. This approach identifies any peptides which interact with GST or either of the recognition antibodies, a known confounding factor for downstream analysis. This conservative approach allows us to score many significant peptides as ‘binders’ which may have been indeterminate before when incorporating the ‘sticky’ peptides into the array average. […]

Ptpn11_N SH2 domain [1] = target: T1, Ptpn11_N SH2 domain (Homo sapiens, UniProt Q06124); assay: SPOT peptide array; format: binding; conditions: GST-SH2 0.25 μM
T1 sequence (Q06124 6-102 limits assumed): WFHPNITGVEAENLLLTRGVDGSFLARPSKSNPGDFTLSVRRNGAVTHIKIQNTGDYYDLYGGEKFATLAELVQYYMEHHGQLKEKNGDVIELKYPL
Description: as §1, §2

Fyn SH2 domain = assay: SPOT peptide array; format: binding; conditions: GST-SH2 0.25 μM
Description: as §1, §2

PI3K1_N SH2 domain [2] = target: T2, PI3K1_N SH2 domain (Homo sapiens, UniProt P27986); design: method as in PMID 8384875; conditions: cited from earlier work
T2 sequence (P27986 333-428 limits assumed): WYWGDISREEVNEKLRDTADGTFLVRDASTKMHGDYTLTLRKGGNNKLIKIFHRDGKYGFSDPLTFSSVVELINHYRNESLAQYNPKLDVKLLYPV

PI3K1_N SH2 domain [3] = target: T2, PI3K1_N SH2 domain; assay: SPOT peptide array; format: binding; conditions: GST-SH2 0.25 μM, membrane-bound peptide, 1 mM DTT, LiCor read-out
Description: as §1, §2

Shb SH2 domain = Shb SH2 domain (Homo sapiens, UniProt Q15464); assay: SPOT peptide array; format: binding; conditions: GST-SH2 0.25 μM
Chain of Shb SH2 domain (Q15464 410-504 limits assumed): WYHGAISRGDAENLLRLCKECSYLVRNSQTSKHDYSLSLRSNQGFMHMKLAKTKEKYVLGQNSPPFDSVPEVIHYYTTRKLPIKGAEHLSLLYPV
Description: as §1, §2

Plcγ-C SH2 domain = assay: SPOT peptide array; format: binding; conditions: spot intensity as factor of array mean; GST-SH2 0.25 μM
Description: as §1, §2

[4] = system: Plcγ SH2 domain (N or C not specified); assay: SPOT peptide array; format: binding; conditions: GST-SH2 0.25 μM, membrane-bound peptide, 1 mM DTT, LiCor read-out
Description: as §1, §2

Plcγ-N SH2 domain = assay: SPOT peptide array; format: binding; conditions: spot intensity as factor of array mean; GST-SH2 0.25 μM
Description: as §1, §2

Crk SH2 domain = Crk SH2 domain (Homo sapiens, UniProt P46108); design: method as in earlier work; conditions: SH2 protein microarray; N.B. = non binding; read-out: Protein Microarray (Macbeath) – KD; cited from earlier work
Chain of Crk SH2 domain (P46108 13-118 limits assumed): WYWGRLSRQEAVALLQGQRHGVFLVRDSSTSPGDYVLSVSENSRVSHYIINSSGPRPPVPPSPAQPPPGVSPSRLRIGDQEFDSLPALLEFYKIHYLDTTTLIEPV

Ptpn11_N SH2 domain [5] = target: T1, Ptpn11_N SH2 domain; assay: Fluorescence polarization solution binding; conditions: Rhodamine B-labeled peptide, GST-SH2, Beacon 2000, read-out: Affinity (KD)
Description: To verify the binding results obtained from addressable peptide arrays we employed an orthogonal method of determining SH2 interactions with peptide ligands. We measured the dissociation constants of 60 binary SH2-peptide pairs in solution by fluorescence polarization (Table 2, Additional file 2: Figures S3A-C).
Peptides were synthesized using FMOC-chemistry onto pre-loaded tenta-gel resins. Peptides were then labeled with Rhodamine B (Abbey Color) and then cleaved using trifluoroacetic acid. Peptides were lyophilized and then purified using a LC/MS (Agilent 2100). Dissociation constants were measured using the Beacon 2000 (Invitrogen) as previously described.
Binding Affinities determined by Fluorescence Polarization. Rhodamine B-labeled peptides were mixed with varying concentrations of GST-tagged SH2 domains. Fluorescence polarization measurements were read on a Beacon 2000 (Invitrogen). The curves were fit to a Michaelis-Menten equation to calculate the dissociation constant, KD. […] (C) Affinity measurements that fell below the 2X mean intensity and were considered array negative on the SPOT array.

Ptpn11_N SH2 domain [6] = target: T1, Ptpn11_N SH2 domain; design: method as in 5 sources, one per row (each row's own in cited_ref): ref [107] = [107]; PMID 8144631; Case RD Piccione E Wolf G Benett AM Lechleider RJ Neel BG Shoelson SE SH-PTP2/Syp SH2 domain binding specificity is defined by direct interactions with platelet-derived growth factor beta-receptor, ep ||| ref [107, 108] = [107]; PMID 8144631; Case RD Piccione E Wolf G Benett AM Lechleider RJ Neel BG Shoelson SE SH-PTP2/Syp SH2 domain binding specificity is defined by direct interactions with platelet-derived growth factor beta-receptor, ep || [108]; PMID 7504175; doi:10.1128/mcb.13.12.7418-7428.1993; Sun XJ Crimmins DL Myers MG Jr Miralpeix M White MF Pleiotropic insulin signals are engaged by multisite phosphorylation of IRS-1 Mol Cell Biol 1993 13 7418 7428 7504175 10.1128/mcb.13.12.7418-7428.19 ||| ref [95, 108, 110] = [95]; PMID 9422724; doi:10.1074/jbc.273.2.729; Ottinger EA Botfield MC Shoelson SE Tandem SH2 domains confer high specificity in tyrosine kinase signaling J Biol Chem 1998 273 729 735 9422724 10.1074/jbc.273.2.729 || [108]; PMID 7504175; doi:10.1128/mcb.13.12.7418-7428.1993; Sun XJ Crimmins DL Myers MG Jr Miralpeix M White MF Pleiotropic insulin signals are engaged by multisite phosphorylation of IRS-1 Mol Cell Biol 1993 13 7418 7428 7504175 10.1128/mcb.13.12.7418-7428.19 || [110]; PMID 9756938; doi:10.1074/jbc.273.41.26908; Myers MG Jr Mendez R Shi P Pierce JH Rhoads R White MF The COOH-terminal tyrosine phosphorylation sites on IRS-1 bind SHP-2 and negatively regulate insulin signaling J Biol Chem 1998 273 26908 26914 9 ||| ref 107 (IRS-1 Y896 also 108) ||| ref 95, 108, 110 = [95]; PMID 9422724; doi:10.1074/jbc.273.2.729; Ottinger EA Botfield MC Shoelson SE Tandem SH2 domains confer high specificity in tyrosine kinase signaling J Biol Chem 1998 273 729 735 9422724 10.1074/jbc.273.2.729 || [108]; PMID 7504175; doi:10.1128/mcb.13.12.7418-7428.1993; Sun XJ Crimmins DL Myers MG Jr Miralpeix M White MF Pleiotropic insulin signals are engaged by multisite phosphorylation of IRS-1 Mol Cell Biol 1993 13 7418 7428 7504175 10.1128/mcb.13.12.7418-7428.19 || [110]; PMID 9756938; doi:10.1074/jbc.273.41.26908; Myers MG Jr Mendez R Shi P Pierce JH Rhoads R White MF The COOH-terminal tyrosine phosphorylation sites on IRS-1 bind SHP-2 and negatively regulate insulin signaling J Biol Chem 1998 273 26908 26914 9; conditions: ref 107 (IRS-1 Y896 also 108); read-out: Relative affinity (IC50); cited from earlier work
CrkL SH2 domain = CrkL SH2 domain (Homo sapiens, UniProt P46109); design: method as in earlier work; conditions: SH2 protein microarray; N.B. = non binding; read-out: Protein Microarray (Macbeath) – KD; cited from earlier work
Chain of CrkL SH2 domain (P46109 14-102 limits assumed): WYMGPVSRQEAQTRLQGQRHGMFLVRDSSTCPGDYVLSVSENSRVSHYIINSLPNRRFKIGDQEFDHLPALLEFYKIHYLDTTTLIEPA

Abl2 SH2 domain = target: T3, Abl2 SH2 domain (Homo sapiens, UniProt P42684); design: method as in earlier work; conditions: SH2 protein microarray; N.B. = non binding; read-out: Protein Microarray (Macbeath) – KD; cited from earlier work
T3 sequence (P42684 173-263 limits assumed): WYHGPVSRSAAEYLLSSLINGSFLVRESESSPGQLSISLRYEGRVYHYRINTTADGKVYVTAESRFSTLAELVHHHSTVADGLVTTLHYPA

panel of 50 SH2 domains = assay: SPOT peptide array probed with each of 50 GST-SH2 domains; format: binding; conditions: SH2 domains with intensity >3X array mean; GST-SH2 0.25 μM, 1 mM DTT
Outline: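 Each GST-fused SH2 domain was overlaid on 192 membrane-synthesized pTyr peptides (11-mers, 4 N-terminal and 6 C-terminal flanking residues) and read with anti-GST and near-infrared secondary antibodies. Binding called relative to membrane mean intensity (>3× positive, <1× negative); GST-only probes defined nonspecific peptides.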

Sh2b SH2 domain = Sh2b SH2 domain (Homo sapiens, UniProt Q9NRF2); assay: SPOT peptide array; format: binding; conditions: GST-SH2 0.25 μM
Description: as §1, §2

[7] = membrane-bound peptide, 1 mM DTT, LiCor read-out
[8] = spot intensity as factor of array mean

For “DLSApYASISFQ [11-mer phosphotyrosine peptide, IRS-1 (Y1229)]”, the Array positive (Ptpn11_C SH2 domain; [7]) was “No (Peptide spots with average intensity values between 1X-3X the array mean were defined as ‘indeterminate’. Those with intensities below 1X mean were defined as array negative)”, the “Peptide array intensity (X mean)” value (Ptpn11_C SH2 domain; [8]) was 1.59 X Mean and the Array positive (Ptpn11_N SH2 domain [1]; [7]) was “No (Peptide spots with average intensity values between 1X-3X the array mean were defined as ‘indeterminate’. Those with intensities below 1X mean were defined as array negative)”. The “Peptide array intensity (X mean)” value (Ptpn11_N SH2 domain [1]; [8]) was 2.78 X Mean, the Array positive (Fyn SH2 domain; [7]) was “No (Peptide spots with average intensity values between 1X-3X the array mean were defined as ‘indeterminate’. Those with intensities below 1X mean were defined as array negative)” and the “Peptide array intensity (X mean)” value (Fyn SH2 domain; [8]) was 0.48 X Mean.
In the case of “GSGDpYMPMSPK [11-mer phosphotyrosine peptide, printed as IRS-1 (Y612); footnote says Y632]”, the “Relative affinity (ID50)” value (PI3K1_N SH2 domain [2]) is given as “ID50 = 0.7-1.1 μM” and the Array positive (PI3K1_N SH2 domain [3]) is given as “No (Peptide spots with average intensity values between 1X-3X the array mean were defined as ‘indeterminate’. Those with intensities below 1X mean were defined as array negative)”.
In the case of “SNQEpYLDLSMP [11-mer phosphotyrosine peptide, FGFR1 (Y766)]”, the Array positive (Shb SH2 domain; [7]) is reported as “No (Peptide spots with average intensity values between 1X-3X the array mean were defined as ‘indeterminate’. Those with intensities below 1X mean were defined as array negative)”, the “Peptide array intensity (X mean)” value (Shb SH2 domain; [8]) is reported as 0.45 X Mean and the “Peptide array intensity (X mean)” value (Plcγ-C SH2 domain) is reported as 0.21 X Mean. The Array positive [4] was “No (Peptide spots with average intensity values between 1X-3X the array mean were defined as ‘indeterminate’. Those with intensities below 1X mean were defined as array negative)” and the “Peptide array intensity (X mean)” value (Plcγ-N SH2 domain) was 0.52 X Mean.
In the case of “ARDIHHIDYpYKKTTNGRD (ARDIHHIDYYKKTTNGRD)”, the Kd (Crk SH2 domain) is given as 1.11 µM.
In the case of `CC(C)[C@H](NC(=O)[C@H](CC(=O)O)NC(=O)[C@H](CCC(=O)O)NC(=O)[C@H](C)N)C(=O)N[C@@H](Cc1ccc(OP(=O)(O)O)cc1)C(=O)N[C@@H](CC(=O)O)C(=O)N[C@H](C(=O)N1CCC[C@H]1C(=O)N1CCC[C@H]1C(=O)N1CCC[C@H]1C(=O)N[C@@H](C)C(=O)O)C(C)C` [AEDVpYDVPPPA], the Kd (Ptpn11_N SH2 domain [5]) is reported as > 50 µM.
For “ELSNpYICMGGK (ELSNYICMGGK) [11-mer phosphotyrosine peptide, IRS-1 (Y465)]”, the IC50 (Ptpn11_N SH2 domain [6]) is given as 48 ± 16 µM.
In the case of “SSKDLVSCApYQVARGMED (SSKDLVSCAYQVARGMED)”, the Kd (Crk SH2 domain) is listed as 0.26 µM, the Kd (CrkL SH2 domain) is listed as 0.24 µM and the Kd (Abl2 SH2 domain) is listed as 0.012 µM.
In the case of “VSEEYLDLRLT [11-mer peptide, FGFR4 (754)]”, the “Other SH2 domains bound (additional array-positive SH2 domains)” value (panel of 50 SH2 domains) is reported as “SHD” and the Array positive [4] is reported as “No (Peptide spots with average intensity values between 1X-3X the array mean were defined as ‘indeterminate’. Those with intensities below 1X mean were defined as array negative)”.
In the case of “DLSApYASISFQ (DLSAYASISFQ) [11-mer phosphotyrosine peptide, IRS-1 (Y1229)]”, the IC50 (Ptpn11_N SH2 domain [6]) is listed as 25 ± 4.2 µM.
For “THDLYMIMREA [11-mer peptide, FGFR3 (Y724)]”, the Array positive (Sh2b SH2 domain; [7]) was “No (Peptide spots with average intensity values between 1X-3X the array mean were defined as ‘indeterminate’. Those with intensities below 1X mean were defined as array negative)” and the “Peptide array intensity (X mean)” value (Sh2b SH2 domain; [8]) was 0.44 X Mean.
